Reference: article PMC3723878 (PLoS ONE, 2013)
Residue numbers refer to the chain shown, from its start.

Experiments:
α1A-AR [1] = biological target: T1, α1A-AR (Homo sapiens, UniProt P35348); test: Intracellular Ca^2+ release in CHO-K1 cells expressing the α1A-AR; format: cell-based; parameters: expressed in transfected cells; conditions: for Emax: CHO-K1, read-out: Emax, Ca^2+ release
T1 sequence (P35348 1-466): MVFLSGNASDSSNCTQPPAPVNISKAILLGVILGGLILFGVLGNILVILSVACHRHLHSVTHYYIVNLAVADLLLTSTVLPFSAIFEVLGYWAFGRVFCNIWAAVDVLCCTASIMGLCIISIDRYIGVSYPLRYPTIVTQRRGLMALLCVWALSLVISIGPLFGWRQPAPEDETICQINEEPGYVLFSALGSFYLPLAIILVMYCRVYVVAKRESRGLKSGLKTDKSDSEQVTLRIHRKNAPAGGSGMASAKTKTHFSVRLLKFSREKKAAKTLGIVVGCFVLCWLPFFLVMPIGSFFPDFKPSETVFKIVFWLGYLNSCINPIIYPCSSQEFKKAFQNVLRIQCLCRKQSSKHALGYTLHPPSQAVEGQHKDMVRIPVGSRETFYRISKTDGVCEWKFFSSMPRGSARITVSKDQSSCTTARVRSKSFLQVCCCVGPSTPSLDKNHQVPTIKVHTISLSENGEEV
Experimental: (§1) CHO cells stably expressing α1-ARs were kindly provided by Dr. Hervé Paris (INSERM U858, Toulouse, France) and were grown in a 50∶50 Dulbecco's Modified Eagle's Medium (DMEM)/Ham's F12 medium supplemented with 10% (v/v) foetal bovine serum (FBS), glutamine (2 mM), penicillin (100 units/ml) and streptomycin (100 µg/ml) at 37°C with 5% CO2. COS-7 cells were grown at 37°C under 5% CO2 in Dulbecco's modified Eagle's medium containing 10% fetal calf serum, 1% penicillin and 1% glutamine (Sigma-Aldrich, St Quentin-Fallavier, France). At 80% confluence, the cells were transfected using a calcium phosphate precipitation method for transient expression of the genetic construct. After 48 h incubation at 37°C, cells were harvested and the membranes were prepared as follow. Cells were washed with ice-cold phosphate buffer and centrifuged at 1700 g for 10 min (4°C). The pellet was suspended in ice-cold buffer (1 mM EDTA, 25 mM sodium phosphate, and 5 mM MgCl2, pH 7.4) and homogenized using an Potter-Elvehjem homogenizer (Fisher Scientific Labosi, Elancourt, France). The homogenate was centrifuged at 1700 g for 15 min (4°C). The sediment was resuspended in buffer, homogenized, and centrifuged at 1700 g for 15 min (4°C). The combined supernatants were centrifuged at 35,000 g for 30 min (4°C), and the pellet was suspended in the same buffer (0.1 ml/dish). […] Cells were grown in a 50∶50 Dulbecco's Modified Eagle's Medium (DMEM)/Ham's F12 medium supplemented with 10% (v/v) foetal bovine serum (FBS), glutamine (2 mM), penicillin (100 units/ml) and streptomycin (100 µg/ml) at 37°C with 5% CO2. Media was changed every 2–3 days and cells were passaged when confluent with 0.05% trypsin and 0.02% EDTA.
All experiments were performed in duplicate.

human α1A-AR WT = biological target: T2, human α1A-AR WT (Homo sapiens, UniProt P35348); test: Competition binding with ^125I-HEAT, wild type receptor
T2 construct: expressed in transfected cells; host or cells: COS-7, transient (calcium phosphate)
T2 sequence (P35348 1-466): T1 sequence (P35348 1-466)
Experimental: as §1
(§2) Binding experiments were performed in a 100 µL reaction mix at room temperature in buffer composed of 50 mM Tris-HCl, pH 7.4, 10 mM MgCl2, 1 g/L BSA. Reactions were stopped by filtration through 96 GF/C filter plates pre-incubated with 0.5% polyethylenimine.
(§3) Binding data were analyzed by nonlinear regression using the KaleidaGraph 4.0 software (Synergy software, Reading, PA). pKD values and Bmax (number of binding sites) were determined by applying a nonlinear regression to data obtained with saturation binding assays. […] Data resulting from competition binding assays were analyzed using the Hill equation for IC50 and curve slope estimations. […] The linear curves were analyzed with IC50 = Ki+(L/KD)*Ki. Dissociation kinetics were analyzed using a simple equation of exponential decay BS * exp (-Koff*t), where BS is the specific binding at time zero and Koff is the dissociation rate constant. Results are expressed as mean ± s.e. mean from n independent experiments. […]

[2] = biological target: T3, human α1A-AR F187A variant (Homo sapiens, UniProt P35348, F187A); test: Saturation binding of ^125I-HEAT; conditions: F187A variant relative to wild type
T3 construct: expressed in transfected cells; host or cells: COS-7, transient (calcium phosphate)
T3 sequence (P35348 1-466 F187A): T1 sequence (P35348 1-466) with F187A
Excerpt: (§4) α1A-AR cDNA inserted in the prK5 vector was kindly provided by Michael Brownstein (Craig Venter Institute, Rockville, MD). Point mutations were introduced into the α1A-AR gene by sense and antisense primers (Sigma-Aldrich, St Quentin-Fallavier, France) containing the desired changes, using the QuikChange Site-Directed Mutagenesis kit. The incorporation of each mutation was verified by DNA sequencing.
as §1, §2
Binding data were analyzed by nonlinear regression using the KaleidaGraph 4.0 software (Synergy software, Reading, PA). pKD values and Bmax (number of binding sites) were determined by applying a nonlinear regression to data obtained with saturation binding assays. The nonlinear regression used was BS = (Bmax*A)/KD+A, where BS is the specific binding, Bmax the number of binding sites, A the concentration of radioligand, and KD the dissociation constant of the radioligand. Data resulting from competition binding assays were analyzed using the Hill equation for IC50 and curve slope estimations. […] The linear curves were analyzed with IC50 = Ki+(L/KD)*Ki. Dissociation kinetics were analyzed using a simple equation of exponential decay BS * exp (-Koff*t), where BS is the specific binding at time zero and Koff is the dissociation rate constant. Results are expressed as mean ± s.e. mean from n independent experiments. One-way Anova test was used to compare values. A p<0.05 was accepted for statistical significance.

[3] = biological target: T4, human α1A-AR D106A variant (Homo sapiens, UniProt P35348, D106A); test: Competition binding with ^125I-HEAT
T4 construct: expressed in transfected cells; host or cells: COS-7, transient (calcium phosphate)
T4 sequence (P35348 1-466 D106A): T1 sequence (P35348 1-466) with D106A
Excerpt: as §4
as §1, with “Media was changed every 2–3 days and cells were passaged when confluent with 0.05% trypsin and 0.02% EDTA.” left out
as §3

[4] = biological target: T5, human α1A-AR F86A variant (Homo sapiens, UniProt P35348, F86A); test: Competition binding with ^125I-HEAT
T5 construct: expressed in transfected cells; host or cells: COS-7, transient (calcium phosphate)
T5 sequence (P35348 1-466 F86A): T1 sequence (P35348 1-466) with F86A
Excerpt: as §4
as §1, with “Media was changed every 2–3 days and cells were passaged when confluent with 0.05% trypsin and 0.02% EDTA.” left out
as §3

α1A-AR [5] = biological target: T1, α1A-AR; test: Competition binding with ^3H-prazosin; parameters: expressed in transfected cells; conditions: inhibition of ^3H-prazosin 2 nM
Experimental: CHO cells stably expressing α1-ARs were kindly provided by Dr. Hervé Paris (INSERM U858, Toulouse, France) and were grown in a 50∶50 Dulbecco's Modified Eagle's Medium (DMEM)/Ham's F12 medium supplemented with 10% (v/v) foetal bovine serum (FBS), glutamine (2 mM), penicillin (100 units/ml) and streptomycin (100 µg/ml) at 37°C with 5% CO2. COS-7 cells were grown at 37°C under 5% CO2 in Dulbecco's modified Eagle's medium containing 10% fetal calf serum, 1% penicillin and 1% glutamine (Sigma-Aldrich, St Quentin-Fallavier, France). At 80% confluence, the cells were transfected using a calcium phosphate precipitation method for transient expression of the genetic construct. […]
as §3

α1A-AR [6] = tested on: α1A-AR; parameters: method as in PMID 20015090; conditions: cited from earlier work
α1B-AR = biological target: α1B-AR; parameters: method as in PMID 20015090; conditions: α1B-AR expressed in yeast; read-out: affinity; cited from earlier work
α1D-AR = biological target: α1D-AR; parameters: method as in PMID 20015090; conditions: α1D-AR expressed in yeast; read-out: affinity; cited from earlier work
[7] = linear fit of ρ-Da1a IC50 against ^125I-HEAT concentration

For `CS(=O)(=O)Nc1c(O)ccc2c1CCCC2C1=NCCN1` (stereo not shown) [A61603], the “Emax, Ca^2+ release” value (α1A-AR [1]; CHO-K1 cells expressing the α1A-AR, agonist alone, A23187 1 µM) was 75.5±1.3 percentage of peak A23187 response.

For `O=C1c2ccccc2CCC1CNCCc1ccc(O)cc1` (stereo not shown) [HEAT], the “Ratio (Ki relative to WT)” value (human α1A-AR WT; WT) was 1, the pKi (human α1A-AR WT; WT, competition with ^125I-HEAT 200 pM) was 9.57±0.08 and the Kd (human α1A-AR WT; [7]) was 0.0435 nM. For the same compound, the pKd (human α1A-AR WT; [7]) was 10.36, the “increase in HEAT affinity” value [2] was 4.5 fold and the “Ratio (reduction of affinity relative to WT)” value [3] was 0.67. For the same compound, the pKi ([3]; competition with ^125I-HEAT 200 pM) was 9.74±0.12, the “Ratio (reduction of affinity relative to WT)” value [4] was 23 ^* and the pKi ([4]; competition with ^125I-HEAT […]) was 8.21±0.09. The Hill slope (α1A-AR [5]) was 0.85 and the pKi (α1A-AR [5]; n = 3) was 9.66±0.08 nM.

`NC[C@H](O)c1ccc(O)c(O)c1` [noradrenaline] showed an Emax (α1A-AR [1]) of 77.8 ± 1.5%.

`Cc1cc(C(C)(C)C)c(O)c(C)c1CC1=NCCN1` [oxymetazoline] gave an Emax (α1A-AR [1]) of 60.8 ± 1.3%.

Compound `CNC[C@H](O)c1cccc(O)c1` [phenylephrine] has an Emax (α1A-AR [1]) of 64.8 ± 2.4%.

For ρ-Da1a, the “displacement of ^3H-prazosin binding” value (α1A-AR [6]; yeast membranes expressing the α1A-AR) is given as 85%, the Ki (α1A-AR [6]; α1A-AR expressed in yeast, read-out: affinity) is given as 0.35 nM and the Ki (α1B-AR) is given as 317 nM. For the same compound, the Ki (α1D-AR) was 420 nM.
